# In PMC10348910, “Epigenetic reprogramming of cell cycle genes by ACK1 promotes breast cancer resistance to CDK4/6 inhibitor” (Oncogene, 2023):
# Key:
# [1] = tested on: luciferase expressing 4T1 cells; assay: orthotopic lung metastasis study; type: in vivo, female Balb/c mice; settings: 24 mg/kg subcutaneously, 2 weeks
# Method: In addition, we performed fluorescent imaging on mice orthotopically injected with luciferase expressing 4T1 cells (5 × 10^5). Two weeks after inoculation into the mammary fat pads, mice were subcutaneously injected with vehicle (6% Captisol) or (R)-9b (24 mg/kg) five times a week for 2 weeks. Mice were then administered an intraperitoneal injection of D-luciferin, lungs were excised and imaged for metastases.
# Female Balb/c mice were orthotopically injected with luciferase expressing 4T1 cells (5 × 10^5). Two weeks after inoculation into the 5th mammary fat pads, mice were subcutaneously injected with vehicle (6% captisol) or (R)-9b (24 mg/Kg) five times a week, for 2 weeks. Mice were then intraperitoneally injected with D-luciferin, humanely euthanized, lungs were excised and assessed for metastases using both fluorescent in vivo imaging system and H&E staining.
# [2] = tested on: prostate cancer cell lines; design: method as in PMID 28609657; settings: various prostate cancer cell lines; cited from earlier work
# [3] = tested on: normal breast cell line, MCF10A; assay: proliferation assay, trypan blue exclusion; type: cell-based; settings: Homo sapiens, MCF-10A, 96 h
# Method: (§1) Fig. 2 ACK1 regulates breast cancer transcriptome, affecting genes implicated in cell cycle progression. A Chemical structure of (R)-9b. B Breast cancer cell lines were treated with either vehicle or (R)-9b overnight and cell lysates were subjected to immunoprecipitation using ACK1 antibody, followed by immunoblotting with pY284-ACK1 antibody. Lysates were also subjected to immunoblotting with total ACK1 and Actin antibodies, shown in the lower panels. […] C Breast cancer cell lines were treated with varying concentrations of (R)-9b for 96 h and the cell proliferation was measured using Trypan Blue exclusion method. […]
# (§2) For proliferation assay, 5 × 10^4 cells were plated in 6-well plate and treated with either vehicle (DMSO) or varying concentrations of (R)-9b or palbociclib in complete media for 96 h and number of viable cells were counted by trypan blue exclusion assay. […] The cells were acquired using the BD FACSCalibur machine (BD Biosciences) and data was analyzed using FlowJo software. […] The data were analyzed using FlowJo software.
# (§3) No data was excluded from the analysis. […] Data were expressed as the mean ± SEM. Data between two groups were analyzed with unpaired Student’s t tests using Graphpad Prism (Graphpad Software Inc, California, USA). […]
# breast cancer cell lines = assay: proliferation assay, trypan blue exclusion; type: cell-based; settings: 96 h
# Method: as §1, §2, §3
structure (smiles),measurement,setting,value
CN1CCN(c2ccc(Nc3ncc(Cl)c(NC[C@H]4CCCO4)n3)cc2)CC1 [(R)-9b],lung tumor nodules (H&E),[1],absent
same,lung luminescence (photons/sec),[1]; five times a week,significant decrease
same,IC50,[2],400 nM
same,IC50,[3],1490 nM
same,IC50,breast cancer cell lines,250 to 1220 nM
